Among the data in patent US20130121994A1, “TRIAZOLOPYRIDINE DERIVATIVES” (BAYER INTELLECTUAL PROPERTY GMBH, priority 2009, published 2013) are IC50 values, retold here.

In this experiment the target is T1, human kinase Mps-1 (Homo sapiens, UniProt P33981).
T1 construct: N-terminally GST-tagged human full length recombinant Mps-1 kinase; GST (N); purchased Invitrogen, Karslruhe, Germany PV4071
T1 sequence (P33981 1-857): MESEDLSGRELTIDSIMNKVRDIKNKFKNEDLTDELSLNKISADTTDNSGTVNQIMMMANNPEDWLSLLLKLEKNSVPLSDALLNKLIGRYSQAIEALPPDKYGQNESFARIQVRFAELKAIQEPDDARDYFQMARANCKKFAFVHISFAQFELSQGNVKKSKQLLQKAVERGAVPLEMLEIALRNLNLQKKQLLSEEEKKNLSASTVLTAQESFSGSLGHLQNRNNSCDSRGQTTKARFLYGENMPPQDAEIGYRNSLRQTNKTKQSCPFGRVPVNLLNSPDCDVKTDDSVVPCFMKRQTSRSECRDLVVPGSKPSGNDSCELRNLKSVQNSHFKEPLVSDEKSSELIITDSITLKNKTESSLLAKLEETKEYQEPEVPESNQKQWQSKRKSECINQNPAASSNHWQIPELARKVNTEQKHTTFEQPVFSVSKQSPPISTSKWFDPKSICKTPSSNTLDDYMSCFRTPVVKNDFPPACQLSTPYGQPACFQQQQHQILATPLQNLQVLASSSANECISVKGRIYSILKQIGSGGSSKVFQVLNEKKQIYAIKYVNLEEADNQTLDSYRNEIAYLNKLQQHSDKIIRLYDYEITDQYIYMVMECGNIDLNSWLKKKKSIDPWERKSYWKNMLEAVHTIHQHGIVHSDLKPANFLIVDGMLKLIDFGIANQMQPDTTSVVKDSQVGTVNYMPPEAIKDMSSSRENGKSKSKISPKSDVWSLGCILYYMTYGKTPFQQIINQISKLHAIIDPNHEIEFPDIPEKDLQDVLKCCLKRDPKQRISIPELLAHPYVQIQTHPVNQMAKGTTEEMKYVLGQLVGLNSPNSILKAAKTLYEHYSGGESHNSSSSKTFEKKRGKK
In words: Mps-1 kinase assay (HTRF). The format is biochemical. Background: TR-FRET usually uses a lanthanide donor and a delayed reading to cut background.

What is called IC50 is the concentration at which inhibition is half-maximal. A high value points to a need for much substance.

The structures appear in SMILES notation.

In the case of `CCNC(=O)c1ccc(Nc2nc3ccc(-c4cccc(C(=O)NCC(C)(C)C)c4)cn3n2)c(OCC)c1` [Example 11.087, 4-[(6-{3-[(2,2-dimethylpropyl)carbamoyl]phenyl}[1,2,4]tria-zolo[1,5-a]pyridin-2-yl)amino]-3-ethoxy-N-ethylbenzamide], the half-inhibitory concentration (IC50) is no more than 1 nM.
Then `CCNC(=O)c1ccc(Nc2nc3ccc(-c4cccc(C(=O)NCC(F)(F)F)c4)cn3n2)c(OCC)c1` [Example 11.088, 3-ethoxy-N-ethyl-4-[(6-{3-[(2,2,2-trifluoroethyl)carbamoyl]phenyl}[1,2,4]triazolo [1,5-a]pyridin-2-yl)amino]benzamide], with no more than 1 nM.
Compound `CCOc1cc(C(=O)NC(C)(C)C)ccc1Nc1nc2ccc(-c3cccc(C(=O)NCC(C)(C)C)c3)cn2n1` [Example 11.089, N-tert-butyl-4-[(6-{3-[(2,2-dimethylpropyl)carbamoyl]phenyl}[1,2,4]tria-zolo[1,5-a]pyridin-2-yl)amino]-3-ethoxybenzamide] returned an IC50 of 1.01 nM.
For the compound `CCOc1cc(C(=O)NC(C)(C)C)ccc1Nc1nc2ccc(-c3cccc(C(=O)NCC(F)(F)F)c3)cn2n1` [Example 11.090, N-tert-butyl-3-ethoxy-4-[(6-{3-[(2,2,2-trifluoroethyl)carbamoyl]phenyl}[1,2,4]triazolo [1,5-a]pyridin-2-yl)amino]benzamide], the IC50 was 1.62 nM.
Turning to `CC(C)(C)CNC(=O)c1cccc(-c2ccc3nc(Nc4ccc(C(=O)NCCO)cc4OCC(F)(F)F)nn3c2)c1` [Example 11.091, 4-[(6-{3-[(2,2-dimethylpropyl)carbamoyl]phenyl}[1,2,4]tria-zolo[1,5-a]pyridin-2-yl)amino]-N-(2-hydroxyethyl)-3-(2,2,2-trifluoroethoxy)benzamide], the IC50 is no more than 1 nM.
On to `CC(C)(C)CNC(=O)c1cccc(-c2ccc3nc(Nc4ccc(C(=O)NC(C)(C)CO)cc4OCC(F)(F)F)nn3c2)c1` [Example 11.092, 4-[(6-{3-[(2,2-dimethylpropyl)carbamoyl]phenyl}[1,2,4]tria-zolo[1,5-a]pyridin-2-yl)amino]-N-(1-hydroxy-2-methylpropan-2-yl)-3-(2,2,2-trifluoroethoxy)benzamide], for which the IC50 was no more than 1 nM.
Regarding `O=C(NCCO)c1ccc(Nc2nc3ccc(-c4cccc(C(=O)NCC(F)(F)F)c4)cn3n2)c(OCC(F)(F)F)c1` [Example 11.093, N-(2-hydroxyethyl)-3-(2,2,2-trifluoroethoxy)-4-[(6-{3-[(2,2,2-trifluoroethyl)carbamoyl]phenyl}[1,2,4]triazolo [1,5-a]pyridin-2-yl)amino]benzamide], the IC50 was no more than 1 nM.
In the case of `CC(C)(CO)NC(=O)c1ccc(Nc2nc3ccc(-c4cccc(C(=O)NCC(F)(F)F)c4)cn3n2)c(OCC(F)(F)F)c1` [Example 11.094, N-(1-hydroxy-2-methylpropan-2-yl)-3-(2,2,2-trifluoroethoxy)-4-[(6-{3-[(2,2,2-trifluoroethyl)carbamoyl]phenyl}[1,2,4]triazolo [1,5-a]pyridin-2-yl)amino]benzamide], the IC50 was no more than 1 nM.
`CC(C)(C)CNC(=O)c1cccc(-c2ccc3nc(Nc4ccc(C(=O)NCC(C)(C)O)cc4OCC(F)(F)F)nn3c2)c1` [Example 11.095, 4-[(6-{3-[(2,2-dimethylpropyl)carbamoyl]phenyl}[1,2,4]tria-zolo[1,5-a]pyridin-2-yl)amino]-N-(2-hydroxy-2-methylpropyl)-3-(2,2,2-trifluoroethoxy)benzamide] displayed an IC50 of no more than 1 nM.
`CC(C)(O)CNC(=O)c1ccc(Nc2nc3ccc(-c4cccc(C(=O)NCC(F)(F)F)c4)cn3n2)c(OCC(F)(F)F)c1` [Example 11.096, N-(2-hydroxy-2-methylpropyl)-3-(2,2,2-trifluoroethoxy)-4-[(6-{3-[(2,2,2-trifluoroethyl)carbamoyl]phenyl}[1,2,4]triazolo [1,5-a]pyridin-2-yl)amino]benzamide] returned an IC50 of no more than 1 nM.
`CNS(=O)(=O)c1cccc(-c2ccc3nc(Nc4cccc(F)c4C#N)nn3c2)c1` [Example 11.098, 3-{2-[(2-cyano-3-fluorophenyl)amino][1,2,4]triazolo[1,5-a]pyridin-6-yl}-N-methylbenzenesulfonamide] displayed an IC50 of 97.6 nM.
Then `CC(C)(C)CC(=O)Nc1ccc(-c2ccc3nc(Nc4ccccc4C#N)nn3c2)cc1` [Example 11.099, N-(4-{2-[(2-cyanophenyl)amino][1,2,4]triazolo[1,5-a]pyridin-6-yl}phenyl)-3,3-dimethylbutanamide], with 18.9 nM; and `CC(C)(C)CCC(=O)Nc1ccc(-c2ccc3nc(Nc4ccccc4C#N)nn3c2)cc1` [Example 11.100, N-(4-{2-[(2-cyanophenyl)amino][1,2,4]triazolo[1,5-a]pyridin-6-yl}phenyl)-4,4-dimethylpentanamide], with 8.08 nM; and `COc1cc(C(=O)NC(C)(C)C)ccc1Nc1nc2ccc(-c3ccc(NC(=O)CC(F)(F)F)cc3)cn2n1` [Example 11.101, N-tert-butyl-3-methoxy-4-[(6-{4-[(3,3,3-trifluoropropanoyl)amino]phenyl}[1,2,4]triazolo [1,5-a]pyridin-2-yl)amino]benzamide], with 2.53 nM.
